Measured values reported in BindingDB's records for doi:10.1021/jm00116a003 (Virginia Commonwealth University, 1992).

Experiments:
[1] = The compound was tested for its binding affinity towards sigma receptor in guinea pig brain membranes.
[2] = as above; remark: listed apart in the source

For `O=C(c1ccccc1)N1CCNCC1`, which Ki [1] is on record?
The Ki was 11400 nM.

With `COc1ccccc1C1(O)CCNCC1` as the molecule, how does the Ki [1] read?
Its Ki is 14300 nM.

For `Clc1ccc(C2=CCN(CCCCc3ccccc3)CC2)cc1`, which Ki [2] is on record?
The Ki was 4.1 nM.

With `FC(F)(F)c1cccc(N2CCN(CCCCc3ccccc3)CC2)c1` as the molecule, how does the Ki [1] read?
Its Ki is 5.4 nM.

With `c1ccc(CCCCN2CCN(c3ccccc3)CC2)cc1` as the molecule, how does the Ki [1] read?
The Ki was 2.6 nM.

For `Clc1cccc(N2CCN(CCc3ccccc3)CC2)c1`, which Ki [1] is on record?
The Ki was 11 nM.

For `c1ccc(CCCN2CCN(c3ccc4ccccc4c3)CC2)cc1`, which Ki [1] is on record?
Its Ki is 2.8 nM.

With `Clc1ccc(N2CCN(CCCc3ccccc3)CC2)cc1` as the molecule, how does the Ki [1] read?
The Ki was 2.9 nM.
